Measurements as given in patent US20250282819A1, “MITOCHONDRIA-[…] PEPTIDE THAT CAN BE […] DELIVERED AT NANOMOLAR CONCENTRATION, AND USE THEREOF” (CAMP THERAPEUTICS INC., priority 2021, published 2025).
Blank lines part the entries; values can stand above or below the compound they belong to. Where a SMILES comes first, the peptide text is derived from it. [ ]: non-standard residue; d: D form. Cha = N[C@@H](CC1CCCCC1)C(=O)O

Assays:
[1] = tested on: HeLa cells; experiment: Relative cytotoxicity, number of cells normally attached; conditions: 100 nM, 3 hours
Description: The relative cytotoxicity of the dimeric bundle peptides according to the present disclosure was compared and analyzed. For this purpose, 1×10^5 HeLa cells were treated with 100 nM of each peptide for 3 hours, washed three times with PBS, and then resuspended in PBS. After 30 minutes, five random photographs of each sample were taken under a light microscope to measure the number of cells normally attached to the cell culture dish.

[2] = tested on: HeLa cells; experiment: Co-localization with endosome, lysosome and cardiolipin (NAO) markers; type: cell-based; conditions: HeLa cells expressing CellLight early endosomes-GFP, 100 nM 3 hours
Description: Next, to investigate whether mitochondrial damage affects the amount of peptide present in lysosomes, cardiolipin-specific targeting was investigated using NAO in the presence or absence of CCCP.
For microscopic observation, HeLa cells were cultured in glass-bottom dishes (SPL, 200350, Korea). The cells were then treated with peptides for 3 hours and stained with MitoTracker™ (Thermo Fisher Scientific, A1372, USA; 100 nM, 1 hr), nonyl acridine orange (NAO; Thermo Fisher Scientific, A1372; 100 nM, 1 hr), Hoechst 33342 ([…], 20 min), CellLight™ early endosomes-GFP (Thermo Fisher Scientific, C10586; […], 16 hr), and/or LysoTracker™ (Thermo Fisher Scientific, L7525; 50 nM, 30 min). The cells were then rinsed with PBS and HBSS was added thereto. Images of the stained cells were obtained using a microscope (Zeiss LSM 880 and ELYRA PS.1). To generate ultra-high resolution images, a structured illumination process was performed with ZEN Black software. Pearson r values were calculated by using ImageJ software.

[3] = tested on: HeLa cells; experiment: Co-localization with Drp1-eGFP; type: cell-based; conditions: HeLa cells transfected with Drp1-eGFP
Description: Wild-type Drp1 cDNA (kindly provided by Dr. Sunyong Chung, Ajou University School of Medicine) was amplified by polymerase chain reaction and inserted into the N-terminus of the eGFP gene in the pcDNA3.1-plasmid. Transfection of the plasmid was performed using Lipofectamine™ 3000 (Thermo Fisher Scientific, L3000001) according to the manufacturer's instructions.

[4] = tested on: HeLa cells; experiment: ATP levels in damaged cells pretreated with peptide; type: cell-based; conditions: HeLa cells pretreated 3 hours; H2O2, antimycin A, or CCCP
Description: The relative ATP levels of cells were compared by fluorescence intensity according to the method described in Experimental Example 8, and mitochondrial damage was induced by treatment with two different mitochondrial damaging agents (1 μM of antimycin A or 1 mM of H2O2).
Cellular ATP levels were assessed using an ATP detection kit (Abcam, ab113849, USA) according to the manufacturer's instructions. Fluorescence luminescence was measured with a microplate reader (Promega, Glomax 96 microplate luminometer, USA).

[5] = tested on: HeLa cells; conditions: 10 or 30 nM 3 hours, then H2O2 for 1 hour
Description: The membrane potential of mitochondria was measured according to the method described in Experimental Example 7.
(§1) 2×10^4 HeLa cells were seeded in a 96-well plate 24 hours before the experiment. The cells were then stained with MitoSOX™ (Thermo Fisher Scientific, M36008; 5 μM, 10 min) or tetramethylrhodamine ethyl ester (TMRE; Sigma, 87917; 600 nM, 15 min). The cells were washed with PBS, and HBSS was added thereto. Fluorescence signal of the cells was measured with a microplate reader (TECAN) at 37° C. (MitoSox, Ex/Em=510/580 nm; TMRE, Ex/Em=525/575 nm).

[6] = tested on: HeLa cells; conditions: HeLa cells pretreated 3 hours; H2O2, antimycin A, or CCCP
Description: as §1

[7] = tested on: HeLa cells; conditions: EC50 concentration 3 hours, 0.5 mM H2O2
Description: Subsequently, after treatment with 0.5 mM of H2O2, the fluorescence was detected and imaged by confocal microscopy. The fluorescence intensity of the cells was calculated with an image analysis program (ZEN blue).
Then, the cells were stained with 2′,7′-dichlorofluorescin diacetate (H2DCFDA; Sigma, 287810, USA; 25 μM, 30 min) and washed twice with PBS. The cells were treated with 500 μM H2O2 in HBSS and incubated for an additional 10 minutes. DCF signal of the cells was detected by confocal microscope and an image thereof was taken. Green signal intensity of each image was calculated using ZEN blue software.

[8] = tested on: HeLa cells; experiment: Preferential binding to CCCP-damaged mitochondria, confocal microscopy; type: cell-based; conditions: 100 nM 3 hours, 20 μM CCCP
[9] = tested on: HeLa cells; conditions: observed for 4 hours
[10] = tested on: HeLa cells; type: cell-based; conditions: for level of EC50 value (cell-penetrating ability): comparison of CMP3013, LR10, MPP1a, SS-31
Description: Cell-penetrating ability was evaluated using the fluorescently-labeled versions of the dimeric bundle peptides synthesized in Example 3, and measured as EC50 values according to the method described in Experimental Example 3.
1×10^5 HeLa cells were seeded into a 24-well plate. After 24 hours, the peptide was added to the cells and further incubation was performed for 3 hours. The incubated cells were harvested, washed with PBS, suspended in PBS, and then analyzed by fluorescence-activated cell sorting (FACS; BD Accuri, USA). The cells whose fluorescence intensity exceeds the maximum intensity of untreated cells were classified as fluorescence-positive cells.

[11] = Cardiolipin binding assay, NBD fluorescence with liposomes
Description: To further validate specificity of CMP3013 for cardiolipin-rich membranes identified in Example 9, two model systems mimicking the inner mitochondrial membrane were constructed using POPC (1-palmitoyl-2-oleoyl-sn-glycero-3-phosphocholine) and POPE (1-palmitoyl-2-oleoyl-sn-glycero-3-phosphoethanolamine), and cardiolipin binding assays were performed using an NBD-labeled CMP3013 monomer (NBD-CMP3013m), according to the method described in Experimental Example 12.
For the association experiments, 1 μM of NBD-labeled peptide dissolved in PBS was prepared in a black 96-well plate. Liposome (POPC:POPE=2:1 or POPC:POPE=2:1, containing 10% cardiolipin) was added to the peptide until the desired concentration was achieved. The mixture of NBD-peptide and liposome was mixed well through pipetting, and then fluorescence emission of the sample was monitored (λex=467 nm, λem=536 nm).
For the association experiments depending on cardiolipin ratio, 1 μM of NBD-labeled peptide or C6-NBD dissolved in PBS was prepared in a black 96-well plate. Liposome (POPC:POPE=2:1, containing 0 to 20% cardiolipin) was added to the peptide until the desired concentration (5 μM) was achieved. This mixture was mixed well through pipetting and fluorescence emission of the sample was monitored (λex=467 nm, λem=536 nm).
For dissociation experiments, 1 μM of NBD-labeled peptide dissolved in PBS was prepared in a black 96-well plate. Liposome (POPC:POPE=2:1 or POPC:POPE=2:1, containing 10% cardiolipin) was added to the peptide until the desired concentration (100 μM) was achieved. The mixture of NBD-peptide and liposome was mixed well through pipetting and fluorescence intensity of the mixture was measured (λex=467 nm, λem=536 nm). The unlabeled peptide (acetylated peptide) was then added to the mixture and mixed well through pipetting. Incubation in the dark was performed for 10 minutes, and then changes in fluorescence intensity were monitored. Peptide addition and fluorescence measurement were repeated until the concentration of acetylated peptide reached 40 μM.

[12] = SPR binding to inner membrane model on sensor chip
Description: The surface plasmon resonance (SPR) technique was used to determine binding ability of the peptide to liposome. Specifically, an L1 sensor chip was inserted into a Biacore™ T200 SPR system (Cytiva, USA) and then liposome was injected so that the liposome binds to the sensor chip. Subsequently, 1 μM of NBD-CMP3013m peptide was injected to check the signal intensity increased by the binding of liposome and CMP3013.
Two types of model systems mimicking the inner mitochondrial membrane were constructed using POPC and POPE according to the method described in Experimental Example 12, and NBD-labeled CMP3013 monomer (NBD-CMP3013m) and NBD-labeled SS-31 (NBD-SS-31) were used to compare and analyze their cardiolipin binding ability.

Compound: CC(=O)N[C@@H](CC1CCCCC1)C(=O)N[C@H]1CSSC[C@@H](C(=O)N[C@@H](CCCNC(=N)N)C(N)=O)NC(=O)[C@H](CC(C)C)NC(=O)[C@H](CCCNC(=N)N)NC(=O)[C@H](CCCNC(=N)N)NC(=O)[C@H](CC2CCCCC2)NC(=O)[C@H](CC2CCCCC2)NC(=O)[C@H](CCCNC(=N)N)NC(=O)[C@@H](NC(=O)[C@H](CC2CCCCC2)NC(C)=O)CSSC[C@@H](C(=O)N[C@@H](CCCNC(=N)N)C(N)=O)NC(=O)[C@H](CC(C)C)NC(=O)[C@H](CCCNC(=N)N)NC(=O)[C@H](CCCNC(=N)N)NC(=O)[C@H](CC2CCCCC2)NC(=O)[C@H](CC2CCCCC2)NC(=O)[C@H](CCCNC(=N)N)NC1=O [CMP3011] (HELM PEPTIDE1{[ac].[Cha].C.R.[Cha].[Cha].R.R.L.C.R.[am]}|PEPTIDE2{[ac].[Cha].C.R.[Cha].[Cha].R.R.L.C.R.[am]}$PEPTIDE1,PEPTIDE2,3:R3-10:R3|PEPTIDE1,PEPTIDE2,10:R3-3:R3$$$V2.0)
relative cytotoxicity [1]: relatively highest cytotoxicity

Compound: CC(=O)N[C@@H](CC1CCCCC1)C(=O)N[C@H]1CSSC[C@@H](C(=O)N[C@@H](CCCNC(=N)N)C(N)=O)NC(=O)[C@H](CC2CCCCC2)NC(=O)[C@H](CCCNC(=N)N)NC(=O)[C@H](CCCNC(=N)N)NC(=O)[C@H](CC2CCCCC2)NC(=O)[C@H](CC(C)C)NC(=O)[C@H](CCCNC(=N)N)NC(=O)[C@@H](NC(=O)[C@H](CC2CCCCC2)NC(=O)c2ccc3c(c2)C(=O)OC32c3ccc(N(C)C)cc3Oc3cc(N(C)C)ccc32)CSSC[C@@H](C(=O)N[C@@H](CCCNC(=N)N)C(N)=O)NC(=O)[C@H](CC2CCCCC2)NC(=O)[C@H](CCCNC(=N)N)NC(=O)[C@H](CCCNC(=N)N)NC(=O)[C@H](CC2CCCCC2)NC(=O)[C@H](CC(C)C)NC(=O)[C@H](CCCNC(=N)N)NC1=O [FL-CMP3013] (HELM PEPTIDE1{[ac].[Cha].C.R.L.[Cha].R.R.[Cha].C.R.[am]}|PEPTIDE2{[CN(C)c1ccc2c(c1)Oc1cc(N(C)C)ccc1C21OC(=O)c2cc(C(=O)[*:2])ccc21].[Cha].C.R.L.[Cha].R.R.[Cha].C.R.[am]}$PEPTIDE1,PEPTIDE2,3:R3-10:R3|PEPTIDE1,PEPTIDE2,10:R3-3:R3$$$V2.0)
co-localization with endosomal marker [2]: less than 20% | co-localization with Drp1 [3]: co-localize perfectly with Drp1 | ATP production [4]: resumed ATP production | mitochondrial membrane potential [5]: increased by FL-CMP3013 treatment in a concentration-dependent manner | ROS production [6]: inhibited ROS production | ROS production inhibiting ability [7]: greatest inhibition of ROS production | targeting of damaged mitochondria [8]: co-localized more with donut-shaped or bulge-shaped mitochondria | cell survival after CCCP [9]: survived even after 4 hours

level of EC50 value (cell-penetrating ability) [10]: nanomolar level of EC50 value
Compound: AcNH-RCRLLRRLRLCR-C(O)NH2 [LR10, peptide included in the L1L, L4L, L5L, and L8L sub-libraries, additional comparison group]
improvement in cell penetration rate as compared with SS-31 [10]: approximately 100 fold

faster binding to 10% CL liposome versus POPC/POPE liposome alone ([11]; 1 μM NBD-labeled peptide): approximately 10 fold | greater final fluorescence intensity with 10% CL liposome versus POPC/POPE liposome alone ([11]; 1 μM NBD-labeled peptide): 2 fold
Compound: NBD-NH-XCRLXRRXCR-C(O)NH2 [NBD-CMP3013m]

level of EC50 value (cell-penetrating ability) [10]: micromolar level of EC50 value
Compound: X(dR)XKX(dR)XK [MPP1a, reference compound]

greater response unit (RU) for membrane containing 10% cardiolipin versus POPC/POPE membrane alone ([12]; 1 μM peptide): approximately 50% | slower dissociation from CL-containing membrane than from cardiolipin-free membrane ([11]; competition assay with unlabeled peptide): approximately 10 fold
Compound: XCRLXRRXCR (Ac-[Cha]CRL[Cha]RR[Cha]CR-NH2; cysteine pairing not given here) [CMP3013m, acetyl-capped monomeric peptide, X = Cha]
dissociation from the cardiolipin-containing membrane [12]: did not dissociate from the cardiolipin-containing membrane | binding to pathogenically altered membrane (5 to 10% cardiolipin, 10% DLCL) ([11]; POPC:POPE (2:1) liposomes): can bind to a cardiolipin-damaged membrane | binding capacity for liposome membranes, CMP3013m versus SS-31 ([11]; liposomes with cardiolipin or di-lysocardiolipin): better binding capacity for all types of membranes
